Patent US10517889B2, “Modulators of SMAD7 expression” (Ionis Pharmaceuticals, Inc., priority 2017, dated 2019)
Strand notation (5' to 3'): a small letter for the sugar, then the base; units joined by * are phosphorothioate-linked, units joined directly phosphodiester-linked; [ ] holds rarer units or linkages, { } end groups; capitals alone tell only the bases. k = constrained ethyl (cEt); [5mC] = 5-methylcytosine; d = 2'-deoxy (DNA)

Tested on: human SMAD7 mRNA
Test: Antisense inhibition of human SMAD7 mRNA expression in Hep3B cells by 3-10-3 cEt gapmers, 10,000 nM, electroporation (Example 2)
Type: cell-based
Conditions: Hep3B cells, electroporation with 10,000 nM antisense oligonucleotide, approximately 24 hours, primer probe set RTS5062, relative to untreated control cells
Procedure, shortened: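 Hep3B, 20,000 cells/well; electroporation, 10,000 nM ASO; ~24 h. Readout: SMAD7 mRNA by qRT-PCR (RTS5062), RIBOGREEN-normalised; % inhibition vs untreated.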

Substance: 798955 (antisense kT*kT*k[5mC]*dA*dT*dA*dA*dG*d[5mC]*dT*dA*dT*dT*kT*k[5mC]*kT) [compound 798955]
- % Inhibition: 15%

Substance: 798956 (antisense k[5mC]*kT*kT*dT*dT*d[5mC]*dA*dT*dA*dA*dG*d[5mC]*dT*kA*kT*kT) [compound 798956]
- % Inhibition: 22%

Substance: 798957 (antisense kA*kT*kT*d[5mC]*dT*dT*dT*dT*d[5mC]*dA*dT*dA*dA*kG*k[5mC]*kT) [compound 798957]
- % Inhibition: 28%

Substance: 798958 (antisense kA*kA*k[5mC]*dA*dA*dT*dT*d[5mC]*dT*dT*dT*dT*d[5mC]*kA*kT*kA) [compound 798958]
- % Inhibition: 0%

Substance: 798959 (antisense k[5mC]*k[5mC]*k[5mC]*dA*dA*d[5mC]*dA*dA*dT*dT*d[5mC]*dT*dT*kT*kT*k[5mC]) [compound 798959]
- % Inhibition: 36%

Substance: 798960 (antisense kA*k[5mC]*k[5mC]*d[5mC]*d[5mC]*d[5mC]*dA*dA*d[5mC]*dA*dA*dT*dT*k[5mC]*kT*kT) [compound 798960]
- % Inhibition: 39%

Substance: 798961 (antisense kA*kA*kA*dA*d[5mC]*d[5mC]*d[5mC]*d[5mC]*d[5mC]*dA*dA*d[5mC]*dA*kA*kT*kT) [compound 798961]
- % Inhibition: 0%

Substance: 798962 (antisense kT*kT*k[5mC]*d[5mC]*dA*dA*dA*dA*dA*dA*dA*d[5mC]*d[5mC]*k[5mC]*k[5mC]*k[5mC]) [compound 798962]
- % Inhibition: 2%

Substance: 798963 (antisense kT*kT*k[5mC]*dT*dT*d[5mC]*d[5mC]*dA*dA*dA*dA*dA*dA*kA*k[5mC]*k[5mC]) [compound 798963]
- % inhibition of SMAD7 mRNA expression: 13%

Substance: 798964 (antisense k[5mC]*k[5mC]*k[5mC]*dT*dT*d[5mC]*dT*dT*d[5mC]*d[5mC]*dA*dA*dA*kA*kA*kA) [compound 798964]
- % inhibition of SMAD7 mRNA expression: 32%

Substance: 798965 (antisense kT*kG*k[5mC]*d[5mC]*d[5mC]*d[5mC]*dT*dT*d[5mC]*dT*dT*d[5mC]*d[5mC]*kA*kA*kA) [compound 798965]
- % inhibition of SMAD7 mRNA expression: 43%

Substance: 798966 (antisense kT*kA*k[5mC]*d[5mC]*dT*dG*d[5mC]*d[5mC]*d[5mC]*d[5mC]*dT*dT*d[5mC]*kT*kT*k[5mC]) [compound 798966]
- % inhibition of SMAD7 mRNA expression: 35%

Substance: 798967 (antisense kT*k[5mC]*kA*dT*dA*d[5mC]*d[5mC]*dT*dG*d[5mC]*d[5mC]*d[5mC]*d[5mC]*kT*kT*k[5mC]) [compound 798967]
- % inhibition of SMAD7 mRNA expression: 40%

Substance: 798968 (antisense k[5mC]*kG*kA*dT*d[5mC]*dA*dT*dA*d[5mC]*d[5mC]*dT*dG*d[5mC]*k[5mC]*k[5mC]*k[5mC]) [compound 798968]
- % inhibition of SMAD7 mRNA expression: 62%

Substance: 798969 (antisense kT*kG*k[5mC]*d[5mC]*dG*dA*dT*d[5mC]*dA*dT*dA*d[5mC]*d[5mC]*kT*kG*k[5mC]) [compound 798969]
- % inhibition of SMAD7 mRNA expression: 48%

Substance: 798970 (antisense kT*k[5mC]*k[5mC]*dT*dG*d[5mC]*d[5mC]*dG*dA*dT*d[5mC]*dA*dT*kA*k[5mC]*k[5mC]) [compound 798970]
- % inhibition of SMAD7 mRNA expression: 41%

Substance: 798971 (antisense kG*kG*kT*dG*dT*d[5mC]*d[5mC]*dT*dG*d[5mC]*d[5mC]*dG*dA*kT*k[5mC]*kA) [compound 798971]
- % inhibition of SMAD7 mRNA expression: 53%

Substance: 798972 (antisense kT*kA*kT*d[5mC]*dA*dG*dG*dG*dT*dG*dT*d[5mC]*d[5mC]*kT*kG*k[5mC]) [compound 798972]
- % inhibition of SMAD7 mRNA expression: 18%

Substance: 798973 (antisense kT*k[5mC]*k[5mC]*dT*dA*dT*d[5mC]*dA*dG*dG*dG*dT*dG*kT*k[5mC]*k[5mC]) [compound 798973]
- % Inhibition: 30%

Substance: 798974 (antisense k[5mC]*kT*k[5mC]*dT*dT*d[5mC]*d[5mC]*dT*dA*dT*d[5mC]*dA*dG*kG*kG*kT) [compound 798974]
- % Inhibition: 12%

Substance: 798975 (antisense kT*k[5mC]*k[5mC]*d[5mC]*d[5mC]*dT*d[5mC]*dT*dT*d[5mC]*d[5mC]*dT*dA*kT*k[5mC]*kA) [compound 798975]
- % Inhibition: 47%

Substance: 798976 (antisense kT*kG*kG*dA*dT*dT*dT*d[5mC]*dT*dG*d[5mC]*dT*dT*k[5mC]*k[5mC]*k[5mC]) [compound 798976]
- % Inhibition: 19%

Substance: 798977 (antisense kT*kG*k[5mC]*dT*dT*dG*dG*dA*dT*dT*dT*d[5mC]*dT*kG*k[5mC]*kT) [compound 798977]
- % Inhibition: 43%

Substance: 798978 (antisense kT*kT*kT*dG*dG*dT*dG*dG*dT*dG*d[5mC]*dT*dT*kG*kG*kA) [compound 798978]
- % Inhibition: 25%

Substance: 798979 (antisense kG*kT*kG*dT*dT*dT*dG*dG*dT*dG*dG*dT*dG*k[5mC]*kT*kT) [compound 798979]
- % Inhibition: 19%

Substance: 798980 (antisense kA*k[5mC]*kA*d[5mC]*dT*dG*dT*dG*dT*dT*dT*dG*dG*kT*kG*kG) [compound 798980]
- % Inhibition: 50%

Substance: 798981 (antisense k[5mC]*kA*kT*dA*d[5mC]*dA*d[5mC]*dT*dG*dT*dG*dT*dT*kT*kG*kG) [compound 798981]
- % Inhibition: 58%

Substance: 798982 (antisense k[5mC]*kT*kT*d[5mC]*dA*dT*dA*d[5mC]*dA*d[5mC]*dT*dG*dT*kG*kT*kT) [compound 798982]
- % Inhibition: 45%

Substance: 798983 (antisense k[5mC]*k[5mC]*k[5mC]*d[5mC]*dT*dT*d[5mC]*dA*dT*dA*d[5mC]*dA*d[5mC]*kT*kG*kT) [compound 798983]
- % inhibition of SMAD7 mRNA expression: 0%

Substance: 798984 (antisense kG*k[5mC]*k[5mC]*d[5mC]*d[5mC]*d[5mC]*d[5mC]*dT*dT*d[5mC]*dA*dT*dA*k[5mC]*kA*k[5mC]) [compound 798984]
- % inhibition of SMAD7 mRNA expression: 64%

Substance: 798985 (antisense kG*kA*k[5mC]*d[5mC]*dG*d[5mC]*d[5mC]*d[5mC]*d[5mC]*d[5mC]*d[5mC]*dT*dT*k[5mC]*kA*kT) [compound 798985]
- % inhibition of SMAD7 mRNA expression: 41%

Substance: 798986 (antisense kG*kA*kT*dG*dA*d[5mC]*d[5mC]*dG*d[5mC]*d[5mC]*d[5mC]*d[5mC]*d[5mC]*k[5mC]*kT*kT) [compound 798986]
- % inhibition of SMAD7 mRNA expression: 34%

Substance: 798988 (antisense kT*kG*kA*dA*dA*dT*dG*dA*dT*dG*dA*d[5mC]*d[5mC]*kG*k[5mC]*k[5mC]) [compound 798988]
- % inhibition of SMAD7 mRNA expression: 69%

Substance: 798989 (antisense kA*kA*kG*dT*dG*dA*dA*dA*dT*dG*dA*dT*dG*kA*k[5mC]*k[5mC]) [compound 798989]
- % inhibition of SMAD7 mRNA expression: 8%

Substance: 798990 (antisense kG*kA*k[5mC]*dA*dA*dG*dT*dG*dA*dA*dA*dT*dG*kA*kT*kG) [compound 798990]
- % inhibition of SMAD7 mRNA expression: 39%

Substance: 798991 (antisense k[5mC]*k[5mC]*kT*dG*dA*d[5mC]*dA*dA*dG*dT*dG*dA*dA*kA*kT*kG) [compound 798991]
- % inhibition of SMAD7 mRNA expression: 23%

Substance: 798992 (antisense kA*k[5mC]*kT*d[5mC]*d[5mC]*dT*dG*dA*d[5mC]*dA*dA*dG*dT*kG*kA*kA) [compound 798992]
- % inhibition of SMAD7 mRNA expression: 29%

Substance: 798993 (antisense k[5mC]*kA*k[5mC]*dA*d[5mC]*dT*d[5mC]*d[5mC]*dT*dG*dA*d[5mC]*dA*kA*kG*kT) [compound 798993]
- % Inhibition: 37%

Substance: 798994 (antisense kA*k[5mC]*kA*d[5mC]*dA*d[5mC]*dA*d[5mC]*dT*d[5mC]*d[5mC]*dT*dG*kA*k[5mC]*kA) [compound 798994]
- % Inhibition: 0%

Substance: 798995 (antisense kA*k[5mC]*kT*d[5mC]*dA*d[5mC]*dA*d[5mC]*dT*d[5mC]*dA*d[5mC]*dA*k[5mC]*kA*k[5mC]) [compound 798995]
- % Inhibition: 0%

Substance: 798996 (antisense k[5mC]*kA*k[5mC]*dA*d[5mC]*dT*d[5mC]*dA*d[5mC]*dA*d[5mC]*dT*d[5mC]*kA*k[5mC]*kA) [compound 798996]
- % Inhibition: 49%

Substance: 798997 (antisense kG*k[5mC]*kA*d[5mC]*dA*d[5mC]*dT*d[5mC]*dA*d[5mC]*dA*d[5mC]*dT*k[5mC]*kA*k[5mC]) [compound 798997]
- % Inhibition: 12%

Substance: 798998 (antisense k[5mC]*kG*k[5mC]*dA*d[5mC]*dA*d[5mC]*dT*d[5mC]*dA*d[5mC]*dA*d[5mC]*kT*k[5mC]*kA) [compound 798998]
- % Inhibition: 13%

Substance: 798999 (antisense k[5mC]*k[5mC]*kG*d[5mC]*dA*d[5mC]*dA*d[5mC]*dT*d[5mC]*dA*d[5mC]*dA*k[5mC]*kT*k[5mC]) [compound 798999]
- % Inhibition: 17%

Substance: 799000 (antisense kG*k[5mC]*k[5mC]*dG*d[5mC]*dA*d[5mC]*dA*d[5mC]*dT*d[5mC]*dA*d[5mC]*kA*k[5mC]*kT) [compound 799000]
- % Inhibition: 42%

Substance: 799001 (antisense k[5mC]*kA*kG*d[5mC]*d[5mC]*dG*d[5mC]*dA*d[5mC]*dA*d[5mC]*dT*d[5mC]*kA*k[5mC]*kA) [compound 799001]
- % Inhibition: 37%

Substance: 799002 (antisense kA*k[5mC]*kA*dG*d[5mC]*d[5mC]*dG*d[5mC]*dA*d[5mC]*dA*d[5mC]*dT*k[5mC]*kA*k[5mC]) [compound 799002]
- % Inhibition: 15%

Substance: 799003 (antisense kA*k[5mC]*kA*d[5mC]*dA*dG*d[5mC]*d[5mC]*dG*d[5mC]*dA*d[5mC]*dA*k[5mC]*kT*k[5mC]) [compound 799003]
- % inhibition of SMAD7 mRNA expression: 0%

Substance: 799004 (antisense kG*k[5mC]*kA*d[5mC]*dA*d[5mC]*dA*d[5mC]*dA*dG*d[5mC]*d[5mC]*dG*k[5mC]*kA*k[5mC]) [compound 799004]
- % inhibition of SMAD7 mRNA expression: 0%

Substance: 799005 (antisense k[5mC]*kG*kT*dG*d[5mC]*dA*d[5mC]*dA*d[5mC]*dA*d[5mC]*dA*dG*k[5mC]*k[5mC]*kG) [compound 799005]
- % inhibition of SMAD7 mRNA expression: 0%

Substance: 799006 (k[5mC]*kG*k[5mC]*dT*d[5mC]*d[5mC]*dT*dG*d[5mC]*dA*d[5mC]*dA*d[5mC]*kG*k[5mC]*kG; antisense) [compound 799006]
- % inhibition of SMAD7 mRNA expression: 0%
